Experimental data from US20060258703A1, “Remedy for pruritus comprising piperidine derivative as the active ingredient” (ONO PHARMACEUTICAL CO., LTD., priority 2003, published 2006).

Test system: ovalbumin-induced eye scratching behavior in actively sensitized male Hartley guinea pigs
Experiment: inhibitory effect on eye itching using albumin induced eye itching model
Format: in vivo, guinea pig
Conditions: for number of eye scratching times / eye scratching behavior inhibition ratio: 10 μL/eye instilled 30 min before ovalbumin, n=8; for number of eye scratching times: counted for 60 min, average; for eye scratching behavior inhibition ratio: ratio to control (average)
Protocol: The inhibitory effect on eye itching of piperidine derivatives of the present invention was studied using albumin induced eye itching model.
1. The test of inhibitory effect on eye itching using albumin induced eye itching model
Aluminum hydroxide gel absorption ovalbumin (20 μg/mL)was dissolved in physiological saline solution, each solution ([…]) was injected subconjunctivally to the both eyeballs of five-week-old male Hartley guinea pigs to sensitize them actively. 14 days after sensitization, 1.0% (W/V) of ovalbumin physiological saline solution was instilled into both their eyes, 10 μL/eye, respectively.
As test compounds, a suspension of 0.01% (W/V) and 0.1% (W/V) of {4-cyano-4-[3-(cyclopentyloxy)-4-(difluoromethoxy)phenyl]piperidine-1-yl}acetic acid monohydrate (hereinafter, it is the compound A) in 0.1% hydroxypropylmethylcellulose was prepared and it was instilled into both eyes of the above-mentioned guinea pigs, 10 μL/eye, respectively, 30 minutes before the instillation of ovalbumin. 0.1% hydroxypropylmethylcellulose was used as control.
The behavior of guinea pigs for 60 minutes after ovalbumin instillation was video recorded. The inhibitory effect on eye itching was evaluated by counting each number of eye scratching times in case of instillation of each test compound solution and control. […] In addition, the number of example is eight. eye scratching behavior inhibition ratio=100−([the number of eye scratching times of the test compound]÷[the number of eye scratching times of control])×100

N#CC1(c2ccc(OC(F)F)c(OC3CCCC3)c2)CCN(CC(=O)O)CC1.O [Compound A, {4-cyano-4-[3-(cyclopentyloxy)-4-(difluoromethoxy)phenyl]piperidine-1-yl}acetic acid monohydrate]
number of eye scratching times (0.01% (W/V) suspension in 0.1% hydroxypropylmethylcellulose): 44.6 times
eye scratching behavior inhibition ratio (0.01% (W/V) suspension): 34.4%
number of eye scratching times (0.1% (W/V) suspension in 0.1% hydroxypropylmethylcellulose): 29.0 times
eye scratching behavior inhibition ratio (0.1% (W/V) suspension): 57.4%
number of eye scratching times compared to control (in words) (guinea pigs given 0.01% and 0.1% eye instillation, extent almost depends on concentration): decreases significantly compared to control
